According to PMC11874377, “Fungal-derived methyldeoxaphomins target Plasmodium falciparum segregation through the inhibition of PfActin1” (Proceedings of the National Academy of Sciences of the …, 2025):

System: Dd2
Assay: Rate of killing assay by flow cytometry
Type: cell-based, Plasmodium falciparum
Settings: 10 × EC50 for 12, 24, or 48 h
Experimental: After a 24 h lag phase, only 10^0.64 parasites are killed within the first replication cycle (48 h). […] We also examined the in vitro killing rate in Dd2 through flow cytometric analysis.
Following the previously described protocol (Collins et al., 2021), compound or vehicle control was added to Dd2 culture in the majority ring stage and incubated for either 12, 24, or 48 h prior to compound removal. Samples were then taken at the time of compound removal, and every 24 h for 6 days for flow analysis with SYBR Green I and Mitotracker Deep red FM. Analysis was performed in Flowjo version 10 with gating using DHA, vehicle, no mitotracker, no staining, and uninfected RBC controls. Cells designated as SYBR positive and mitotracker positive were gated as “viable parasites” and graphed using Graphpad Prism version 10. […]

**Q.** With `C=C1C(C)C2C(Cc3ccccc3)NC(=O)C23C(=O)C=CC(O)C(O)C(C)CC(C)CC=CC3C1O` (stereo not shown) [Methyldeoxaphomin NPDG-F] as the compound, how does the “in vitro killing rate phenotype” value read?
**A.** The value was “delayed inhibition phenotype and a cytocidal killing profile”.
